Where two headings read alike, the source gives them in different places.
How the values were obtained:
[1] = system: primary human hepatocytes (PHH); assay: Cytotoxicity (cellular ATP, CellTiter-Glo) in 2D plated primary human hepatocytes, 48 h treatment; type: cell-based; settings: for IC50: Hepatocyte, 2D primary human hepatocytes (lot IZT), 48 h treatment, total cellular ATP content, read-out: Geomean IC50;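 on all read-outs here: 384-well plates, luminescence read-out, normalized to vehicle wells with 1% DMSO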
[2] = cited from earlier work
[3] = cited from earlier work; for P/N (DILI positive / DILI negative): P = DILI severity categories 1, 2 and 3, N = categories 4 and 5; for DILI category: clinical, from literature and product labels
[4] = ref Chen et al 2016 / Chen et al 2011; cited from earlier work
[5] = Clinical DILI severity categorization and DILI pattern; settings: P = DILI severity categories 1, 2 and 3; N = categories 4 and 5
[6] = system: 3D human liver microtissues (hLiMT); assay: Cytotoxicity (cellular ATP, CellTiter-Glo 2.0) in 3D human liver microtissues, 14 day repeat-dose treatment; settings: for IC50: Homo sapiens, 336 h
[7] = system: 3D human liver microtissues (hLiMT); assay: Cytotoxicity (cellular ATP) in 3D human liver microtissues, 5-6 days treatment; type: cell-based; settings: Homo sapiens; hLiMT, 5/6 days, ATP content; read-out: IC50 SHORT;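 further: Hanging-drop spheroids, seven-point dilution series, re-dosed on day 3, CellTiter-Glo 2.0 luminescence, normalized to 0.5 or 1% DMSO vehicle controls on the same plate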
[8] = system: 3D human liver microtissues (hLiMT); assay: alpha-GST release into hLiMT supernatant (ELISA); type: cell-based; settings: 336 h, 14 days, release into medium, read-out: IC50 (α-GST assay)
[9] = human total plasma Cmax, ref literature values
[10] = Table 1, ref Garside et al. (2014)
[11] = clinical DILI severity category, 1-5
[12] = Hepatocyte, read-out: Geomean IC50 [µM]
[13] = human Cmax total, used for IC50/Cmax
[14] = table S-5, ref Garside et al. 2014
[15] = table S-4, ref Garside et al. 2014

Row | Structure (SMILES) | IC50 [1] [µM] | Cmax [2, 9] [nM] | P/N (DILI positive / DILI negative) [3] | DILI severity category [3, 10] | DILI severity category [3, 11] | DILI category ([3]; ref Garside et al. 2014) | FDA DILI Classification DILI severity score [4] | LTKB DILI classification [4] | P/N (DILI positive / DILI negative) [5] | IC50 [6, 12] [µM] | Cmax [2, 13] [nM] | other results
1 | CNC1(C)C2CCC(C2)C1(C)C (stereo not drawn) [Mecamylamine] | > 50 | 140 | N | 5: No DILI (N = 25) | 5. No DILI | 5. No DILI | 0 | no DILI concern | N | > 25 |  | 
2 | CC(C)[N+](C)(CCOC(=O)C1c2ccccc2Oc2ccccc21)C(C)C [Propantheline] | > 50 | 440 | N | 5: No DILI (N = 25) | 5. No DILI | 5. No DILI | 0 | no DILI concern | N | > 50 | 440 | 
3 | CCOC(=O)c1ncn2c1CN(C)C(=O)c1cc(F)ccc1-2 [Flumazenil] | > 250 | 1120 | N | 5: No DILI (N = 25) | 5. No DILI | 5. No DILI | 0 | no DILI concern | N | > 250 | 1120 | 
4 | CN1[C@@H]2CC[C@H]1C[C@@H](OC(c1ccccc1)c1ccccc1)C2 [Benztropine] |  | 590 | N | 5: No DILI (N = 25) | 5. No DILI | 5. No DILI | 0 | no DILI concern | N |  | 585 | classification at 50× MOS threshold ([1]; PHH 48 h): false positive; classification at 50× MOS threshold ([6]; hLiMT 14 days): false positive
5 | CC(C)(C)NCC(O)COc1cccc2c1CC(O)C(O)C2 (stereo not drawn) [Nadolol] | > 100 | 810 | N | 4: Enzyme elevations in clinic (N = 16) | 4. Enzyme Elevations in Clinic | 4. Enzyme Elevations in Clinic | 3 | Ambiguous DILI concern | N | > 100 | 810 | DILI severity category [3, 14]: 4. Enzyme Elevations in Clinic
6 | CCCCNc1cc(C(=O)O)cc(S(N)(=O)=O)c1Oc1ccccc1 [Bumetanide] | > 10 | 84.8 | N | 4: Enzyme elevations in clinic (N = 16) | 4. Enzyme Elevations in Clinic | 4. Enzyme Elevations in Clinic | 3 | Ambiguous DILI concern | N | > 10 | 84.8 | 
7 | Cc1c(-c2ccccc2)oc2c(C(=O)OCCN3CCCCC3)cccc2c1=O [Flavoxate] | > 10 | 1790 | N | 5: No DILI (N = 25) | 5. No DILI | 5. No DILI | 0 | no DILI concern | N | > 10 | 1790 | 
8 | C1CCC(C(CC2CCCCN2)C2CCCCC2)CC1 (stereo not drawn) [Perhexiline] | 11.2 |  |  | 1: Severe clinical DILI (N = 23) | 1. Severe Clinical DILI | 1. Severe Clinical DILI | 8 | most DILI concern |  | ~2.6 |  | IC50 [7]: 4.2 µM; IC50 [8]: 6.26 µM; DILI severity category [3, 15]: 1; DILI severity category [3, 14]: 1. Severe Clinical DILI; IC50 ([6]; read-out: IC50 (ATP-assay)): 2.01 µM; IC50 ([6]; read-out: IC50 LONG): 2.5 µM
9 | CC(C)(C)NC[C@H](O)COc1ccccc1C1CCCC1 [Penbutolol] | 15.7 | 1030 | N | 4: Enzyme elevations in clinic (N = 16) | 4. Enzyme Elevations in Clinic | 4. Enzyme Elevations in Clinic |  | no DILI concern | N | ~39 | 1030 | classification at 100 μM IC50 threshold ([1]; PHH 48 h): false positives; classification at 100 μM IC50 threshold ([6]; hLiMT 14 days): false positives
10 | Cc1ccc(Cl)c(Nc2ccccc2C(=O)O)c1Cl [Meclofenamate] | 292 | 81100 | N | 4: Enzyme elevations in clinic (N = 16) | 4. Enzyme Elevations in Clinic | 4. Enzyme Elevations in Clinic | 3 | Ambiguous DILI concern | N | ~23.1 | 81100 | classification at 10× MOS threshold ([1]; PHH 48 h): false positive; classification at 10× MOS threshold ([6]; hLiMT 14 days): false positive
11 | CC(C)(C)NCC(O)c1ccc(O)c(CO)c1 (stereo not drawn) [Albuterol] |  | 80 | N | 5: No DILI (N = 25) | 5. No DILI | 5. No DILI |  | no DILI concern | N |  | 80 | 
12 | [H]/N=C(/N)N[C@H]1[C@H](O)[C@@H](O)[C@H](O[C@@H]2O[C@@H](C)[C@](O)(C=O)[C@H]2O[C@@H]2O[C@@H](CO)[C@H](O)[C@@H](O)[C@@H]2NC)[C@@H](N/C(N)=N\[H])[C@@H]1O [Streptomycin] | > 100 | 64500 | N | 5: No DILI (N = 25) | 5. No DILI | 5. No DILI |  | no DILI concern | N | > 100 | 64500 | IC50 [7]: 100 µM; P/N ([3]; binary DILI classification, table S-4): N; DILI severity category [3, 15]: 5
13 | C[C@@H]1C[C@H]2[C@@H]3CCC4=CC(=O)C=C[C@]4(C)[C@@]3(F)[C@@H](O)C[C@]2(C)[C@@]1(O)C(=O)CO [Dexamethasone] | > 100 | 220 | N | 4: Enzyme elevations in clinic (N = 16) | 4. Enzyme Elevations in Clinic | 4. Enzyme Elevations in Clinic | 3 | Ambiguous DILI concern | N | > 100 | 220 | DILI severity category [3, 14]: 4. Enzyme Elevations in Clinic
14 | O=C(O)Cc1ccccc1Nc1c(Cl)cccc1Cl [Diclofenac] | > 500 | 10100 |  |  |  |  |  |  |  | ~61.4 | 10100 | IC50 [7]: 100 µM; IC50 [8]: 210 µM; IC50 ([6]; read-out: IC50 (ATP-assay)): 45.6 µM; IC50 ([6]; read-out: IC50 LONG): 61.4 µM
15 | CC(=O)Nc1ccc(O)cc1 [Acetaminophen] | 4600 | 165000 |  |  |  |  |  |  |  | ~573 | 165000 | IC50 [7]: 911 µM; IC50 [8]: 3260 µM; IC50 ([6]; read-out: IC50 (ATP-assay)): 732 µM; IC50 ([6]; read-out: IC50 LONG): 573 µM
16 | C[N+](C)(C)C[C@H](O)CC(=O)[O-] [Levocarnitine] | > 10000 | 85700 | N | 5: No DILI (N = 25) | 5. No DILI | 5. No DILI |  | no DILI concern | N | > 10000 | 85700 | DILI severity category [3, 14]: 5. No DILI
17 | CCN(CC)C(=O)/C(C#N)=C/c1cc(O)c(O)c([N+](=O)[O-])c1 [Entacapone] | 100 | 3280 | N | 4: Enzyme elevations in clinic (N = 16) | 4. Enzyme Elevations in Clinic | 4. Enzyme Elevations in Clinic | 0 | less DILI concern | N | 152 | 3280 | 
